Measured values published in patent US11254688B2 (Boehringer Ingelheim International GmbH, priority 2018, dated 2022).
Structures can show the parent of a compound that is named as a salt.

These molecules were tested against T1, hGOAT (Homo sapiens, UniProt Q96T53) (assay: Determination of hGOAT activity in HEK293 cells after incubation with test compound (acyl-ghrelin ELISA)). Settings: HEK293 cells stably transfected with preproghrelin and human GOAT; octanoate-BSA 100 μM; 5 hours incubation; acyl-ghrelin in medium by ELISA; 8 compound concentrations.
T1 construct: expressed in transfected cells; host or cells: HEK293 (Hek293 hGOAT/PPGhrl Clone #1B8)
T1 sequence (Q96T53 1-435): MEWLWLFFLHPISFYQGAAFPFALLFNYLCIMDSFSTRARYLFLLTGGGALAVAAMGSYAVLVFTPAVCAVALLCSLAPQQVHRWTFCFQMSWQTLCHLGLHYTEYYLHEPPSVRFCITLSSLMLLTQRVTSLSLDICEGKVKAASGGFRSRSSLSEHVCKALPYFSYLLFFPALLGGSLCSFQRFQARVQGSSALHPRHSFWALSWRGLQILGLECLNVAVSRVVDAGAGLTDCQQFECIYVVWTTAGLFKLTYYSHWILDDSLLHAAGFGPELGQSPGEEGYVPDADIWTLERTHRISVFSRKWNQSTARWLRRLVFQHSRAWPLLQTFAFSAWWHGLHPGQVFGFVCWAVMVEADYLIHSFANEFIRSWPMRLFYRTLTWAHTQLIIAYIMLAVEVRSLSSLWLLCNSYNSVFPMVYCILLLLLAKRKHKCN
Type: cell-based
`Cc1nc2nonc2c(N)c1Cc1ccc(C2(C#N)CC(F)(F)C2)nc1` [Compound 4.28, 1-[5-({7-Amino-5-methyl-[1,2,5]oxadiazolo[3,4-b]Pyridin-6-yl}methyl)pyridin-2-yl]-3,3-difluorocyclobutane-1-carbonitrile] gave an IC50 of 1.5 nM.
Work on `Cc1nc2nonc2c(N)c1Cc1cccn2c(C3CC3)nnc12` [Compound 4.13, 6-({3-Cyclopropyl-[1,2,4]triazolo[4,3-a]pyridin-8-yl}methyl)-5-methyl-[1,2,5]oxadiazolo[3,4-b]pyridin-7-amine] yielded an IC50 of 0.89 nM.
Work on `Cc1nc2nonc2c(N)c1Cc1ccc(C(F)F)cc1` [Compound 17.2, 6-{[4-(difluoromethyl)phenyl]methyl}-5-methyl-[1,2,5]oxadiazolo[3,4-b]pyridin-7-amine] yielded an IC50 of 0.171 nM.
`Cc1nc2nonc2c(N)c1Cc1ccc([S+](C)[O-])cc1` (stereo not shown) [Compound 18.1, 6-[(4-Methanesulfinylphenyl)methyl]-5-methyl-[1,2,5]oxadiazolo[3,4-b]pyridin-7-amine] showed an IC50 of 0.921 nM.
`Cc1nc2nonc2c(N)c1Cc1ccc(OC2CCC2)nc1` [Compound 4.17, 6-[(6-Cyclobutoxypyridin-3-yl)methyl]-5-methyl-[1,2,5]oxadiazolo[3,4-b]pyridin-7-amine] showed an IC50 of 0.371 nM.
For `Cc1nc2nonc2c(N)c1Cc1ccc(C#N)c(OC2CCN(C)C2)c1` (stereo not shown) [Compound 21.8, 4-(7-Amino-5-methyl-[1,2,5]oxadiazolo[3,4-b]pyridin-6-ylmethyl)-2-(1-methyl-pyrrolidin-3-yloxy)-benzonitrile], the IC50 was 1.09 nM.
For `COc1cc(OC(F)(F)F)ccc1Cc1c(C)nc2nonc2c1N` [Compound 2.1, 6-{[2-Methoxy-4-(trifluoromethoxy)phenyl]methyl}-5-methyl-[1,2,5]oxadiazolo[3,4-b]pyridin-7-amine], the IC50 was 0.092 nM.
`Cc1nc2nonc2c(N)c1Cc1ccc(C(=O)NC(CO)C2CC2)cc1` (stereo not shown) [Compound 14.16, 4-({7-Amino-5-methyl-[1,2,5]oxadiazolo[3,4-b]pyridin-6-yl}methyl)-N-(1-cyclopropyl-2-hydroxyethyl)benzamide] showed an IC50 of 3.73 nM.
For `Cc1nc2nonc2c(N)c1Cc1cccn2cnnc12` [Compound 4.11, 5-Methyl-6-({[1,2,4]triazolo[4,3-a]pyridin-8-yl}methyl)-[1,2,5]oxadiazolo[3,4-b]pyridin-7-amine], the IC50 was 3.42 nM.
For `Cc1nc2nonc2c(N)c1Cc1ccc(C#N)cc1` [Compound 2.8, 4-({7-Amino-5-methyl-[1,2,5]oxadiazolo[3,4-b]pyridin-6-yl}methyl)benzonitrile], the IC50 was 0.416 nM.
Molecule `Cc1nc2nonc2c(N)c1Cc1ccc(-n2cc(C#N)cn2)nc1` [Compound 20.1, 1-[5-({7-Amino-5-methyl-[1,2,5]oxadiazolo[3,4-b]pyridin-6-yl}methyl)pyridin-2-yl]-1H-pyrazole-4-carbonitrile Trifluoro-Acetic Acid Salt] has an IC50 of 4.63 nM.
`Cc1nc2nonc2c(N)c1Cc1ccc(OC(F)(F)F)c(C#N)c1` [Compound 16.1, 5-({7-Amino-5-methyl-[1,2,5]oxadiazolo[3,4-b]pyridin-6-yl}methyl)-2-(trifluoromethoxy)benzonitrile] was tested, and the IC50 was 0.26 nM.
`Cc1nc2nonc2c(N)c1Cc1ccc(-c2c(C)noc2C)n2cnnc12` [Compound 12.11, 6-{[5-(3,5-Dimethyl-1,2-oxazol-4-yl)-[1,2,4]triazolo[4,3-a]pyridin-8-yl]methyl}-5-methyl-[1,2,5]oxadiazolo[3,4-b]pyridin-7-amine] showed an IC50 of 1.31 nM.
Work on `Cc1nc2nonc2c(N)c1Cc1ccc(C#N)c(OCC(F)F)c1` [Compound 21.2, 4-({7-Amino-5-methyl-[1,2,5]oxadiazolo[3,4-b]pyridin-6-yl}methyl)-2-(2,2-difluoroethoxy)benzonitrile] yielded an IC50 of 0.176 nM.
Molecule `Cc1nc2nonc2c(N)c1Cc1ccc(Cl)cc1` [Compound 22.1, 6-[(4-Chlorophenyl)methyl]-5-methyl-[1,2,5]oxadiazolo[3,4-b]pyridin-7-amine] has an IC50 of 0.432 nM.
In the case of `Cc1ncc(-c2ccc(Cc3c(C)nc4nonc4c3N)cn2)o1` [Compound 4.22, 5-Methyl-6-{[6-(2-methyl-1,3-oxazol-5-yl)pyridin-3-yl]methyl}-[1,2,5]oxadiazolo[3,4-b]pyridin-7-amine], the IC50 is reported as 4.81 nM.
Work on `Cc1nc2nonc2c(N)c1Cc1ccc(C(C)(C)C)nc1` [Compound 4.7, 6-[(6-tert-butylpyridine-3-yl)methyl]-5-methyl-[1,2,5]oxadiazolo[3,4-b]pyridin-7-amine] yielded an IC50 of 0.124 nM.
`Cc1nc2nonc2c(N)c1Cc1ccc(Cl)c(Cl)c1` [Compound 4.1, 6-[(3,4-Dichlorophenyl)methyl]-5-methyl-[1,2,5]oxadiazolo[3,4-b]pyridin-7-amine] was tested, and the IC50 was 0.246 nM.
Molecule `Cc1nc2nonc2c(N)c1Cc1cccc(OC(F)(F)F)c1` [Compound 4.41, 5-Methyl-6-{[3-(trifluoromethoxy)phenyl]methyl}-[1,2,5]oxadiazolo[3,4-b]pyridin-7-amine] has an IC50 of 0.428 nM.
In the case of `Cc1nc2nonc2c(N)c1Cc1ccc2nccn2c1` [Compound 4.20, 6-Imidazo[1,2-a]pyridin-6-ylmethyl-5-methyl-[1,2,5]oxadiazolo[3,4-b]pyridin-7-ylamine], the IC50 is reported as 5.51 nM.
With `Nc1c(Cc2ccc(C(F)(F)F)cc2)c(C(F)(F)F)nc2nonc12` [Compound 9.1, 5-(Trifluoromethyl)-6-{[4-(trifluoromethyl)phenyl]methyl}-[1,2,5]oxadiazolo[3,4-b]pyridin-7-amine] the IC50 was 9.47 nM.
For `Cc1nc2nonc2c(N)c1Cc1cc(I)ncc1C(F)(F)F` [Compound 4.37, 6-{[2-Iodo-5-(trifluoromethyl)pyridin-4-yl]methyl}-5-methyl-[1,2,5]oxadiazolo[3,4-b]pyridin-7-amine], the IC50 was 0.534 nM.
With `Cc1nc2nonc2c(N)c1Cc1ccc(C(F)(F)F)nc1` [Compound 4.5, 5-Methyl-6-{[6-(trifluoromethyl)pyridin-3-yl]methyl}-[1,2,5]oxadiazolo[3,4-b]pyridin-7-amine] the IC50 was 1.59 nM.
Molecule `Cc1nc2nonc2c(N)c1Cc1ccc(OC2CCOC2)nc1` (stereo not shown) [Compound 21.10, 5-Methyl-6-{[6-(oxolan-3-yloxy)pyridin-3-yl]methyl}-[1,2,5]oxadiazolo[3,4-b]pyridin-7-amine] has an IC50 of 2.57 nM.
Molecule `Nc1c(Cc2ccc(OC(F)(F)F)cc2)c(CF)nc2nonc12` [Compound 11.1, 5-(Fluoromethyl)-6-{[4-(trifluoromethoxy)phenyl]methyl}-[1,2,5]oxadiazolo[3,4-b]pyridin-7-amine] has an IC50 of 0.068 nM.
In the case of `COc1cc(Cc2c(C)nc3nonc3c2N)ccc1C#N` [Compound 2.5, 4-({7-Amino-5-methyl-[1,2,5]oxadiazolo[3,4-b]pyridin-6-yl}methyl)-2-methoxybenzonitrile], the IC50 is reported as 0.402 nM.
`Cc1nc2nonc2c(N)c1Cc1ccc(C#N)c(O[C@H]2CCNC2=O)c1` [Compound 21.3, 4-({7-Amino-5-methyl-[1,2,5]oxadiazolo[3,4-b]pyridin-6-yl}methyl)-2-{[(3S)-2-oxopyrrolidin-3-yl]oxy}benzonitrile] gave an IC50 of 1.58 nM.
With `Cc1nc2nonc2c(N)c1Cc1ccnc(OC(F)(F)F)c1` [Compound 4.56, 5-Methyl-6-{[2-(trifluoromethoxy)pyridin-4-yl]methyl}-[1,2,5]oxadiazolo[3,4-b]pyridin-7-amine] the IC50 was 0.519 nM.
With `COc1ccc(Cc2c(C)nc3nonc3c2N)cn1` [Compound 4.3, 6-[(6-Methoxypyridin-3-yl)methyl]-5-methyl-[1,2,5]oxadiazolo[3,4-b]pyridin-7-amine] the IC50 was 1.58 nM.
With `Cc1nc2nonc2c(N)c1Cc1ccc(-c2c[nH]nc2C(F)(F)F)nc1` [Compound 12.10, 5-Methyl-6-({6-[3-(trifluoromethyl)-1H-pyrazol-4-yl]pyridin-3-yl}methyl)-[1,2,5]oxadiazolo[3,4-b]pyridin-7-amine] the IC50 was 0.437 nM.
In the case of `Cc1nc2nonc2c(N)c1Cc1ccc(C(F)(F)F)n2cnnc12` [Compound 4.12, 5-Methyl-6-{[5-(trifluoromethyl)-[1,2,4]triazolo[4,3-a]pyridin-8-yl]methyl}-[1,2,5]oxadiazolo[3,4-b]pyridin-7-amine], the IC50 is reported as 0.571 nM.
`Cc1nc2nonc2c(N)c1Cc1cccc(F)c1` [Compound 4.2, 6-[(3-Fluorophenyl)methyl]-5-methyl-[1,2,5]oxadiazolo[3,4-b]pyridin-7-amine] was tested, and the IC50 was 2.26 nM.
`Cc1nc2nonc2c(N)c1Cc1ccc(F)c(C#N)c1` [Compound 2.9, 5-({7-Amino-5-methyl-[1,2,5]oxadiazolo[3,4-b]pyridin-6-yl}methyl)-2-fluorobenzonitrile] was tested, and the IC50 was 2.01 nM.
In the case of `CNC(=O)c1cc(Cc2c(C)nc3nonc3c2N)ccc1Cl` [Compound 15.4, 5-({7-Amino-5-methyl-[1,2,5]oxadiazolo[3,4-b]pyridin-6-yl}methyl)-2-chloro-N-methylbenzamide], the IC50 is reported as 0.933 nM.
`COC(=O)c1ccc(Cc2c(C)nc3nonc3c2N)cc1` [Compound 2.10, Methyl 4-({7-amino-5-methyl-[1,2,5]oxadiazolo[3,4-b]pyridin-6-yl}methyl)benzoate] was tested, and the IC50 was 0.132 nM.
For `Nc1c(Cc2ccc(OC(F)(F)F)cc2)c(Cl)nc2nonc12` [Compound 23.3, 5-Chloro-6-{[4-(trifluoromethoxy)phenyl]methyl}-[1,2,5]oxadiazolo[3,4-b]pyridin-7-amine], the IC50 was 0.298 nM.
`Cc1nc2nonc2c(N)c1Cc1cnc(Cl)c(C(F)(F)F)c1` [Compound 25.4, 6-{[6-chloro-5-(trifluoromethyl)pyridin-3-yl]methyl}-5-methyl-[1,2,5]oxadiazolo[3,4-b]pyridin-7-amine] was tested, and the IC50 was 1.35 nM.
